Data taken from patent publication US20260152497A1, “MIDAZO[4,5-c]QUINOLINE-4-AMINE COMPOUNDS AND CONJUGATES THEREOF, THEIR PREPARATION, AND THEIR [sequence] APPLICATIONS” (SANOFI, priority 2021, published 2026).
Read-outs that look alike come from different tables or passages of the source.

Experiments:
human CEACAM5 (human) = human CEACAM5 (human) (UniProt P06731); assay: cell-based or functional assay
[1] = test system: NFkB pathway THP1-Dual cells; assay: Stimulation of human THP-1 monocytic cells, THP1-Dual reporter cells (SEAP, NF-kB); assay type: cell-based
Method: The compounds/conjugates of formula (II) according to the disclosure were subjected to pharmacological testing for determining their activity on human monocytic cells that express at their membrane surface Fc receptors that show binding specificity for the Fc part of the compounds/conjugates of formula (II). The below tests involving measuring the in vitro activity of some compounds/conjugates of formula (II) of the disclosure were carried out using THP1-Dual™ cells as reporter monocyte cells. […] THP1-Dual™ cells (#thpd-nfis) from InvivoGen were used according to the manufacturer's instructions. The cells were obtained by stable integration of two inducible reporter constructs in human THP-1 monocyte cells: an optimized Secreted Embryonic Alkaline Phosphatase (SEAP) reporter gene which is placed under the control of the IFN-β minimal promoter fused to five NF-κB and three c-Rel binding sites and a Secreted Lucia luciferase gene which is placed under the control of an ISG54 minimal promoter fused with five interferon (IFN)-stimulated response elements. As a result, THP1-Dual™ cells allow to study the activation of the NF-κB pathway by monitoring the activity of SEAP, and the interferon regulatory factor pathway, by assessing the activity of Lucia luciferase.

human TLR7 = molecular target: T1, human TLR7 (Homo sapiens, UniProt Q9NYK1); assay: TLR7 pathway activation, parental HEK-Blue hTLR7 reporter cells (SEAP); assay type: cell-based
T1 construct: host or cells: HEK293 (HEK-Blue hTLR7); engineered variants additionally transfected with tumor antigen genes
T1 sequence (Q9NYK1 27-1049): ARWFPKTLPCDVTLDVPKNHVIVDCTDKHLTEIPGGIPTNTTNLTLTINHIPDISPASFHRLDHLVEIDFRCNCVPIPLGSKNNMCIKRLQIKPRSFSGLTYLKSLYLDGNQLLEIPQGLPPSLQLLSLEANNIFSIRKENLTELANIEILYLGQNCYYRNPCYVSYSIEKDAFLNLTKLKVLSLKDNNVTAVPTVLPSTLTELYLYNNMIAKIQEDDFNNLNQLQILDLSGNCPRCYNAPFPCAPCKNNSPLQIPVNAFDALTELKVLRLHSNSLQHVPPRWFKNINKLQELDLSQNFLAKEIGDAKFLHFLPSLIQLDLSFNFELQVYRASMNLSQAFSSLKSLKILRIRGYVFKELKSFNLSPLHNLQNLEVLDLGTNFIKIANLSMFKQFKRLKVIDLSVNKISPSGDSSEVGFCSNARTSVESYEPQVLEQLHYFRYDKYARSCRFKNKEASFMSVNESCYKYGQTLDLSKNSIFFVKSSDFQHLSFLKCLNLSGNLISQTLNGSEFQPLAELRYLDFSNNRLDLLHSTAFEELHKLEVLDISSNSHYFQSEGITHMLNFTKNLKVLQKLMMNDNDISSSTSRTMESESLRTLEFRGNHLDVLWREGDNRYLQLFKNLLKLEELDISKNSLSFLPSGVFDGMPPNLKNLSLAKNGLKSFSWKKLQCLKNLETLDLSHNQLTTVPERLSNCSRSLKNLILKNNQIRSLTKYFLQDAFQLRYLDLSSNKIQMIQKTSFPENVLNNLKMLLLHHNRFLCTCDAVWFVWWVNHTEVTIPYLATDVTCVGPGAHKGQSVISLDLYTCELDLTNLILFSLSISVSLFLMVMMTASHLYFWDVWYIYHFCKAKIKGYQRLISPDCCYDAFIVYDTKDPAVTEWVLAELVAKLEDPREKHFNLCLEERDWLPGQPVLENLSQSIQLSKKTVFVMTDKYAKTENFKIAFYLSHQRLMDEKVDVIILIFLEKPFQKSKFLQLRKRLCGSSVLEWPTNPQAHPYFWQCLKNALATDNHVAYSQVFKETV
Method: The below tests involving measuring the in vitro activity of some compounds of the disclosure on human TLR7 pathway were carried out using parental HEK-Blue™ hTLR7 cells and engineered tumor antigen-expressing HEK-Blue™ hTLR7 cells respectively as reporter cells.
(§1) HEK-Blue™ hTLR7 Cells (#hkb-htlr7) and HEK-Blue™ hTLR8 Cells (#hkb-htlr8) cells from InvivoGen and the engineered tumor antigen expressing cells were used according to the manufacturer's instructions. The HEK-Blue™ hTLR7 and HEK-Blue™ hTLR8 cells were obtained by co-transfection of the hTLR7 or hTLR8 gene in HEK293 cells and an optimized Secreted Embryonic Alkaline Phosphatase (SEAP) reporter gene which is placed under the control of the IFN-β minimal promoter fused to five NF-κB and AP-1-binding sites. The human tumor antigen expressing HEK-Blue™ hTLR7 and hTLR8 cells were obtained by transfection of the tumor antigen genes in the parental cells followed by a polyclonal selection to enrich in cells overexpressing the tumor antigen. Stimulation with a TLR7/8 ligand activates NF-kB and AP-1 which induce the production of SLAP. The cells are seeded in 96-well plate at 3.10E4 cells/well and incubated 24 hours at 37C, 5% CO2 before adding the conjugates to be evaluated. The cells are subsequently incubated with 3-fold serial dilutions of each of the compounds (0.01 nM to 1 μM) for 96 hours at 37° C., 5% CO2. Next, 20 μL of the supernatant is harvested and incubated with 200 μL of QUANTI-Blue™ Solution.

[2] = monotherapy, intravenous; cited from earlier work
human MKN-45 tumor cells = assay: Incucyte Immune Cell Killing Assay, co-culture of human PBMC and NucLight red-labelled MKN-45 tumor cells; assay type: cell-based; conditions: 10 nM, 120-hour incubation, PBMC + MKN-45 co-culture
Method: The conjugates according to the disclosure were subjected to pharmacological testing for determining their tumor cell killing activity via immune cell activation.
The below tests involving measuring the in vitro tumor cell killing activity of some compounds of the disclosure were carried out using Incucyte® Immune Cell Killing Assay consisting in co-culture of human peripheral blood mononuclear cells (PBMC) and NucLight red-labelled human MKN-45 tumor cells. This Immune Cell Killing Assay allows for direct, measurements of immune cell-mediated killing of MKN-45 tumor cells with the combination of real-time, automated analysis of tumor cell number.
MKN-45 (stomach tumor cell line, DSMZ Germany) were used as they present a very high expression of CEACAM5 (Antigen Binding Capacity ≈3.10E5 receptors per cell). To count living MKN-45 cells in real time without altering their function, MKN45 cells have been stained thanks to a lentiviral-based labeling reagent enabling expression of a nuclear-restricted red (Nuclight Red) fluorescent protein. […]
The plates were then placed in the Incucyte® live-cell analysis apparatus. The Incucyte® Cell-by-Cell Analysis module was used to quantify the number of NucLight red-labelled MKN-45 tumor cells over-time. […]

[3] = molecular target: Fc receptors at the membrane surface of human THP-1 monocytic cells; assay: cell-based or functional assay
human TLR8 = molecular target: T2, human TLR8 (Homo sapiens, UniProt Q9NR97); assay: TLR8 pathway activation, parental HEK-Blue hTLR8 reporter cells (SEAP); assay type: cell-based; conditions: unnumbered table b703
T2 construct: host or cells: HEK293 (HEK-Blue hTLR8); engineered variant additionally transfected with the CEACAM5 tumor antigen gene
T2 sequence (Q9NR97 27-1041): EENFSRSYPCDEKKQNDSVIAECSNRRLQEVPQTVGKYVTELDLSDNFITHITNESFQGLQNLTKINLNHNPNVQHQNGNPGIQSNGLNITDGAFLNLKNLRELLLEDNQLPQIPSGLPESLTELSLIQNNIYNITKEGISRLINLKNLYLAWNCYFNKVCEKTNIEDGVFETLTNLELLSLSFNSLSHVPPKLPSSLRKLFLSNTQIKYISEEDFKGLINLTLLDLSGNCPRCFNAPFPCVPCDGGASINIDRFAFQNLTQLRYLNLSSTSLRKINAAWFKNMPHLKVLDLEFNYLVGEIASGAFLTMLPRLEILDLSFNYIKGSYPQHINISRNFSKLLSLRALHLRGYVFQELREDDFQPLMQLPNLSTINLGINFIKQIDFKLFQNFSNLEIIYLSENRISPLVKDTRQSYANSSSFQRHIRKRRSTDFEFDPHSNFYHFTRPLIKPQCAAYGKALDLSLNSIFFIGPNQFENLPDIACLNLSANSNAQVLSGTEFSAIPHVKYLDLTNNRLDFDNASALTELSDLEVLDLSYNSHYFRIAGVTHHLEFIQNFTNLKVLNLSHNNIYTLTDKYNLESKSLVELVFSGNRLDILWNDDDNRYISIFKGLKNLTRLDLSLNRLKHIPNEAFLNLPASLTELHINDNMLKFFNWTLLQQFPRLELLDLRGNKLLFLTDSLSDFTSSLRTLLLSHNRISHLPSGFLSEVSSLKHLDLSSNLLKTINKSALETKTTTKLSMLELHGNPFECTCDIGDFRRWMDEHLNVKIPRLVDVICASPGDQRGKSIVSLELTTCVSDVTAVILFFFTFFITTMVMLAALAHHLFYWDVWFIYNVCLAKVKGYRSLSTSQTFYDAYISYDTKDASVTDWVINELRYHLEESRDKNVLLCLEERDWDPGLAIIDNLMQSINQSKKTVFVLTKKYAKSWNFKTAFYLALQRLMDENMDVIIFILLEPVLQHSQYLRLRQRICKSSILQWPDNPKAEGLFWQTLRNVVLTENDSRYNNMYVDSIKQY
Excerpt: as §1, with “evaluated.” for “evaluated. The cells are subsequently incubated with 3-fold serial dilutions of each of the compounds (0.01 nM to 1 μM) for 96 hours at 37° C., 5% CO2. Next, 20 μL of the supernatant is harvested and incubated with 200 μL of QUANTI-Blue™ Solution.”

[4] = Homo sapiens, THP1-Dual, Table 6, reference ligands
[5] = Table 1a, 96 hours, read-out: EC50 HEKBlue-hTLR7

Sequence of human CEACAM5 (human) (P06731 35-685 limits assumed): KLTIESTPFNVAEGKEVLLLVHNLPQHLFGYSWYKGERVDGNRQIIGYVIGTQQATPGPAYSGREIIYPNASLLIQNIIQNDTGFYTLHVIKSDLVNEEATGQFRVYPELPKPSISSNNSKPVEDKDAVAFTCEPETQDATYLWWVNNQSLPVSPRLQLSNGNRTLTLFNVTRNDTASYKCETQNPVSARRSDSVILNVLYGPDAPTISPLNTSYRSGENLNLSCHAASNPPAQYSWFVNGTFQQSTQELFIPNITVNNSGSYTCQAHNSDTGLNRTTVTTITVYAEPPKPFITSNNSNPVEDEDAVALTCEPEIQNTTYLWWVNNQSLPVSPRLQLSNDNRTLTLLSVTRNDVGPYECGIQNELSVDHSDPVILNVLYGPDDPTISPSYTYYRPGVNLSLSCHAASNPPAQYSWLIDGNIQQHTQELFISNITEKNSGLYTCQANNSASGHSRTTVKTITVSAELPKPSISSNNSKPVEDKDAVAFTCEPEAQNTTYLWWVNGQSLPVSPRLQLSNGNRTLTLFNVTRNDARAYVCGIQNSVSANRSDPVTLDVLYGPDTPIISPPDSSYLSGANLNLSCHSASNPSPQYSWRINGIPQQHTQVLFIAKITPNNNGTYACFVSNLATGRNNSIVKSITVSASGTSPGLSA

Irrelevant human IgG1 (antibody) showed an Internalized fluorescent intensity (Median) on HEKBlue-hTLR7-CEACAM5, 4 hours (human CEACAM5 (human)) of 144, an Internalized fluorescent intensity (Median) on HEKBlue-hTLR7-CEACAM5, 24 hours (human CEACAM5 (human)) of 525 and an Internalized fluorescent intensity (Median) on HEKBlue-hTLR7-CEACAM5, 48 hours (human CEACAM5 (human)) of 738. For the same compound, the Internalized fluorescent intensity (Median) on HEKBlue-hTLR7-CEACAM5, 72 hours (human CEACAM5 (human)) was 833, the Internalized fluorescent intensity (Median) on HEKBlue-hTLR8-CEACAM5, 4 hours (human CEACAM5 (human)) was 68 and the Internalized fluorescent intensity (Median) on HEKBlue-hTLR8-CEACAM5, 24 hours (human CEACAM5 (human)) was 120. The Internalized fluorescent intensity (Median) on HEKBlue-hTLR8-CEACAM5, 48 hours (human CEACAM5 (human)) was 151 and the Internalized fluorescent intensity (Median) on HEKBlue-hTLR8-CEACAM5, 72 hours (human CEACAM5 (human)) was 167.
In the case of `CCNCc1nc2c(N)nc3ccccc3c2n1CC(C)(C)O` [Gardiquimod, reference compound], the EC50 [1, 4] is reported as > 4000 nM.
With “EGFR_cetuximab-PEG24-R848 ADC [Example 23]” the EC50 (human TLR7; [5]) was > 1000 nM.
In the case of `CCOCc1nc2c(N)nc3ccccc3c2n1CC(C)(C)O.O=S(=O)(O)O` [BDB-001], the “treatment-related adverse events, share of the enrolled patients” value [2] is listed as “around 78%”.
With CEACAM5_Tusamitamab-PEG24-R848 the “% of Immune cell-mediated killing activity” value (human MKN-45 tumor cells) was 57%.
“CEACAM5_Tusamitamab-PEG8-R848 ADC (Example 8) (antibody)” showed an EC50 NFkB pathway THP1-Dual cells [3] of 1.9 nM.
For `CCCN(CCC)C(=O)C1=Cc2ccc(-c3ccc(C(=O)N4CCCC4)cc3)cc2N=C(N)C1` [Motolimod, reference compound], the EC50 [1, 4] was 394 nM.
Work on `CCOCc1nc2c(N)nc3ccccc3c2n1CC(C)(C)O` [Example R848, 4-amino-2-(ethoxymethyl)-alpha, alpha-dimethyl-1H-imidazo(4,5-c)quinoline-1-ethanol, reference compound] yielded an EC50 [1, 4] of 212 nM and an EC50 ([1]; Homo sapiens, THP1-Dual, Table 7b, 96 hours) of 238 nM.
Compound “CEACAM5_Tusamitamab-PEG24-R848 ADC (Example 20a) (antibody)” has an EC50 NFkB pathway THP1-Dual cells [3] of 0.9 nM.
Compound “CEACAM5_Tusamitamab-PEG8-R848 ADC [Example 8]” has an EC50 ([1]; Table 7a, 96 hours) of 1.9 nM.
Compound “CEACAM5_Tusamitamab-PEG12-R848 ADC (Example 14) (antibody)” has an EC50 NFkB pathway THP1-Dual cells [3] of 2.8 nM.
In the case of “CEACAM5_Tusamitamab-PEG12-R848 ADC [Example 14]”, the EC50 ([1]; Table 7a, 96 hours) is reported as 2.8 nM.
With “CEACAM5_Tusamitamab_E152C_S375C-PEG24-R848 ADC [Example 43]” the EC50 (human TLR7; Table 1c, 96 hours, read-out: EC50 HEKBlue-hTLR7) was > 1000 nM and the EC50 ([1]; Table 7b, 96 hours) was 2 nM.
Compound “CEACAM5_Tusamitamab-PEG4-R848 ADC (Example 2) (antibody)” has an EC50 NFkB pathway THP1-Dual cells [3] of 0.8 nM.
Work on “CEACAM5_Tusamitamab-PEG4-R848 ADC [Example 2]” yielded an EC50 ([1]; Table 7a, 96 hours) of 0.8 nM.
In the case of `CCOCc1nc2c(N)nc3ccccc3c2n1CC(C)(C)N` [Example 3M012, 1-(2-amino-2-methylpropyl)-2-(ethoxymethyl)-1H-imidazo[4,5-c]quinolin-4-amine, reference compound], the EC50 (human TLR8) is reported as 2540 nM, the EC50 (human TLR7; [5]) is reported as 518 nM and the EC50 (human TLR7; unnumbered table b703, read-out: EC50 on HEK-Blue ™ hTLR7 cells) is reported as 518 nM.
In the case of “CEACAM5_Tusamitamab-PEG24-R848 ADC [Example 20a]”, the EC50 ([1]; Table 7a, 96 hours) is reported as 0.9 nM.
